The values that follow come from patent US20260193264A1, “BENZOYPARAZINE PYRAZINES AND THEIR USES” (FOGHORN THERAPEUTICS INC., priority 2022, published 2026).

A value given as a limit tells only on which side of the number the result lay.

The target of test [1] is T1, HiBiT-BRM fusion protein in stable HeLa cell line (Homo sapiens, UniProt P51531).
T1 construct: expressed in transfected cells
Nature of the test: HiBiT-BRM cell-based degradation assay (Nano-Glo HiBiT Lytic Detection, 24 h). More on the design: DC50: scale not given here. As to conditions: HeLa HiBiT-BRM cells; for DC50: read-out: BRM HiBit Degradation IC50; for BRM HiBit Degradation Maximum (%): top dose 30 μM. The method, boiled down: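 Percent degradation was scaled between DMSO-treated cells and cells given 2 μM of a known BRM/BRG1 degrader. Readout was NanoBiT luminescence after lytic detection. HeLa cells stably expressing HiBiT-BRM were dosed for 24 h, 10 points, 3-fold steps from 30 μM final, in duplicate.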

Test [2] has as its target T2, HiBit-BRG1 fusion protein in stable HeLa cell line expressing HiBit-BRG1 and LgBit (Homo sapiens, UniProt P51532).
T2 construct: expressed in transfected cells
Description: HiBiT-BRG1 cell-based degradation assay (Nano-Glo HiBiT, 24 h). Conditions: HeLa HiBit-BRG1/LgBit cells; for DC50: read-out: BRMG1 HiBit Degradation IC50; for Dmax: top dose 30 μM, read-out: BRG1 HiBit Degradation Maximum (%). The method, boiled down:
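Degradation calculated from NanoBiT luminescence relative to DMSO-treated cells (high) and cells given 2 μM known BRM/BRG1 degrader (low). HeLa cells stably expressing HiBiT-BRG1 plus LgBiT were exposed to compound for 24 h before lytic HiBiT detection.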

T1 sequence (P51531 whole entry, the tested form may be a part): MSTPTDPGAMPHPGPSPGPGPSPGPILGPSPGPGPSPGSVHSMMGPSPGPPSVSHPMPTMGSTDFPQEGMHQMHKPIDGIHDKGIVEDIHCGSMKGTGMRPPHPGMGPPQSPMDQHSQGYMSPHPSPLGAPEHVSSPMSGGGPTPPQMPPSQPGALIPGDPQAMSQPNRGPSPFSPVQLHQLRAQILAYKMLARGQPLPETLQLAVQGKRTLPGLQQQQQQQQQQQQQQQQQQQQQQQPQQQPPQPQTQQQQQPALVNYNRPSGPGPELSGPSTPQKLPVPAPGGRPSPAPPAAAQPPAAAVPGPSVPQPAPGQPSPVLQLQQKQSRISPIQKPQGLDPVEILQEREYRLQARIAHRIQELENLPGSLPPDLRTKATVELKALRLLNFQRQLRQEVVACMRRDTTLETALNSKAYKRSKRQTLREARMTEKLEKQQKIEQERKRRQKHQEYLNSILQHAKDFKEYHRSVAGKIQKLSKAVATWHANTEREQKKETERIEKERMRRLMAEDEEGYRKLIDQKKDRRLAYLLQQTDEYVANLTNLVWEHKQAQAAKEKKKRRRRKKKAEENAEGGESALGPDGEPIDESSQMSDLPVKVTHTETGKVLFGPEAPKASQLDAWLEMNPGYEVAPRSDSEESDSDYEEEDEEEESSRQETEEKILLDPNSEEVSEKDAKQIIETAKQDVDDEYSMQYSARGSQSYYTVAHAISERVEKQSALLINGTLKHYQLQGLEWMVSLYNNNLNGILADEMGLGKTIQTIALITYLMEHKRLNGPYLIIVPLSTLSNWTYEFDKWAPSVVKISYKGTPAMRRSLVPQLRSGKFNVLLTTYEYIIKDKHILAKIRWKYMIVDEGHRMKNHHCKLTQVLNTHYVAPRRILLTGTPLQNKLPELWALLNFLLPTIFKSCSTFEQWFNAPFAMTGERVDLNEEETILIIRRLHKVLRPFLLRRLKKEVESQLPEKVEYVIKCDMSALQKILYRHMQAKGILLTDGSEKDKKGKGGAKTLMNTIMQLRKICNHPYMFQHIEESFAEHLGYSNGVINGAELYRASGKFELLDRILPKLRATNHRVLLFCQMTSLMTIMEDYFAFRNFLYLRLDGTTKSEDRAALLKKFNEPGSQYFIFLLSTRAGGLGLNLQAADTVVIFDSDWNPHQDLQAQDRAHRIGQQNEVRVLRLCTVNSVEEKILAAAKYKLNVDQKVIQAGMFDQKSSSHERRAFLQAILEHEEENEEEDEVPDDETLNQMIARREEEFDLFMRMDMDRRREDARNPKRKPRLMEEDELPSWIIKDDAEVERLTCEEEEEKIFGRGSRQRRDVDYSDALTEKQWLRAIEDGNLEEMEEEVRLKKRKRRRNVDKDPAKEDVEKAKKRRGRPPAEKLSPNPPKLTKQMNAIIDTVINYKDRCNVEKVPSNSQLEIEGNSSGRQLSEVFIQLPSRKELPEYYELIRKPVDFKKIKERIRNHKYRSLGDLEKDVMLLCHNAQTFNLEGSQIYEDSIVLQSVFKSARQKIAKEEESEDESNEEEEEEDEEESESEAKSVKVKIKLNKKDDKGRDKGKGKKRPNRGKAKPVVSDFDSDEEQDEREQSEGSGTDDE
T2 sequence (P51532 whole entry, the tested form may be a part): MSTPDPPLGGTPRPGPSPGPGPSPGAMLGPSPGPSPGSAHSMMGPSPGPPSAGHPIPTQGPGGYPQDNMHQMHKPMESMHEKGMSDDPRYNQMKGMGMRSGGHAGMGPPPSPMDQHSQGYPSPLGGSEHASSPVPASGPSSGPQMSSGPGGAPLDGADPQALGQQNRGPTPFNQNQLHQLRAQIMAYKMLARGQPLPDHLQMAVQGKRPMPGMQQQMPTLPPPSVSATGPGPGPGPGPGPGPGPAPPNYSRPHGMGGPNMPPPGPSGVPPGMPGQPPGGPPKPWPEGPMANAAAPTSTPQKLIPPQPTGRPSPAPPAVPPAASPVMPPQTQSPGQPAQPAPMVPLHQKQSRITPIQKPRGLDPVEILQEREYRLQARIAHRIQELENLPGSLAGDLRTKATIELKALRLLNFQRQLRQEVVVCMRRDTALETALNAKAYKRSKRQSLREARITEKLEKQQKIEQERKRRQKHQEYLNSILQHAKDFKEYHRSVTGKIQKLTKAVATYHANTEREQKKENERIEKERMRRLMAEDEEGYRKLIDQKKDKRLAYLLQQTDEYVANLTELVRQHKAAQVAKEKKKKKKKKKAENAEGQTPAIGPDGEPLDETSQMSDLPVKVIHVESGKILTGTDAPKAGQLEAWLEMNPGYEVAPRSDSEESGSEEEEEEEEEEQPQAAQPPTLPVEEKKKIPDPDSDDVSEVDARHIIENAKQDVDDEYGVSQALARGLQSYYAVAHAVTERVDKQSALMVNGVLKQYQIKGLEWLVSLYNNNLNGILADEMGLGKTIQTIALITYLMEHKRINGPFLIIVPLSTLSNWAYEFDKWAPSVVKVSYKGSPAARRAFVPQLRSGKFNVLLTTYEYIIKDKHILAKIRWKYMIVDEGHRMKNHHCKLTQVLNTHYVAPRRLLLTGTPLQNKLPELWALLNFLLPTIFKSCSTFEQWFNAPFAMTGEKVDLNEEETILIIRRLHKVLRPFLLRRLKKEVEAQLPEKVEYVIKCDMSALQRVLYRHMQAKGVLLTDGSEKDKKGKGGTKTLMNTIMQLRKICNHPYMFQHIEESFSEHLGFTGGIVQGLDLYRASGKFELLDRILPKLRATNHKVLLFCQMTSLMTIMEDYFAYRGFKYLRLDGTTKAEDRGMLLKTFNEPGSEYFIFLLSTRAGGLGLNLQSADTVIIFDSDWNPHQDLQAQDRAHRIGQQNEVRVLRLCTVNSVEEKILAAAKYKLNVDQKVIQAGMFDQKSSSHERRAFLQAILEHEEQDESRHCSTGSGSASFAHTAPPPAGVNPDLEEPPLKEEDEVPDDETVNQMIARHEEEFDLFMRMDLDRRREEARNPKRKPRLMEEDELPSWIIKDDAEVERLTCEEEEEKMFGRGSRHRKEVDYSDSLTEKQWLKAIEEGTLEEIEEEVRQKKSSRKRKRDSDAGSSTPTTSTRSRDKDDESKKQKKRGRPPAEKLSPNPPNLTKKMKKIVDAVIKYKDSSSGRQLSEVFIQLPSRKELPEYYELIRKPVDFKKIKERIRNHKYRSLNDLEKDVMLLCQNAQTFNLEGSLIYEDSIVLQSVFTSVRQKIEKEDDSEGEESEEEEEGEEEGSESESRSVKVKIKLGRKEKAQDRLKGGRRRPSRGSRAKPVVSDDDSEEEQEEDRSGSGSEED

`Cc1ncsc1-c1ccc([C@H](C)NC(=O)[C@@H]2C[C@@H](O)CN2C(=O)[C@@H](c2cc(N3CCC4(CCN(c5ccc6nnc(-c7ccccc7O)cc6c5)C4)CC3)no2)C(C)C)cc1` [Compound 72, (2S,4R)-4-hydroxy-1-((R)-2-(3-(2-(3-(2-hydroxyphenyl)cinnolin-6-yl)-2,8-diazaspiro [4.5]decan-8-yl)isoxazol-5-yl)-3-methylbutanoyl)-N-((S)-1-(4-(4-methylthiazol-5-yl)phenyl)ethyl)pyrrolidine-2-carboxamide]: in test [1], the DC50 was under 10 nM and the “BRM HiBit Degradation Maximum (%)” value is reported as “A (“A” indicates maximum degradation ≥75%)”. In addition, in test [2], the DC50 was over 10 nM and the Dmax was over 75%.
The like results for `Cc1ncsc1-c1ccc([C@H](C)NC(=O)[C@@H]2C[C@@H](O)CN2C(=O)C(C(C)C)n2cc(N3CCC4(CC3)CN(c3ccc5cc(-c6ccccc6O)nnc5c3)C4)nn2)cc1` (stereo partly drawn) [Compound 197, (2S,4R)-4-hydroxy-1-(2-(4-(2-(3-(2-hydroxyphenyl)cinnolin-7-yl)-2,7-diazaspiro[3.5]nonan-7-yl)-1H-1,2,3-triazol-1-yl)-3-methylbutanoyl)-N-((S)-1-(4-(4-methylthiazol-5-yl)phenyl)ethyl)pyrrolidine-2-carboxamide] were, in that order, under 10 nM, “A (“A” indicates maximum degradation ≥75%)”, under 10 nM and over 75%.
Consider `Cc1ncsc1-c1ccc([C@H](C)NC(=O)[C@@H]2C[C@@H](O)CN2C(=O)[C@@H](c2cc(N3CC[C@@H](c4ccc5nnc(-c6ccccc6O)cc5c4)C3)no2)C(C)C)cc1` [Compound 73, (2S,4R)-4-hydroxy-1-((R)-2-(3-((S)-3-(3-(2-hydroxyphenyl)cinnolin-6-yl)pyrrolidin-1-yl)isoxazol-5-yl)-3-methylbutanoyl)-N-((S)-1-(4-(4-methylthiazol-5-yl)phenyl)ethyl)pyrrolidine-2-carboxamide], for which, in test [1], the DC50 is under 10 nM and the “BRM HiBit Degradation Maximum (%)” value was “A (“A” indicates maximum degradation ≥75%)”. In addition, the Dmax in test [2] was under 50%.
Turning to `C#Cc1cc2cc(-c3ccccc3O)nnc2cc1N1CC2(CN(c3cc([C@H](C(=O)N4C[C@H](O)C[C@H]4C(=O)N[C@@H](C)c4ccc(-c5scnc5C)cc4)C(C)C)on3)C2)C1` [Compound 239, (2S,4R)-1-((R)-2-(3-(6-(6-ethynyl-3-(2-hydroxyphenyl)cinnolin-7-yl)-2,6-diazaspiro[3.3]heptan-2-yl)isoxazol-5-yl)-3-methylbutanoyl)-4-hydroxy-N-((S)-1-(4-(4-methylthiazol-5-yl)phenyl)ethyl)pyrrolidine-2-carboxamide], in test [1], the DC50 is under 10 nM and the “BRM HiBit Degradation Maximum (%)” value is listed as “A (“A” indicates maximum degradation ≥75%)”. In addition, in test [2], the DC50 is over 10 nM and the Dmax is over 50%.
The like results for `Cc1ncsc1-c1ccc([C@H](C)NC(=O)[C@@H]2C[C@@H](O)CN2C(=O)C(C(C)C)n2cc(N3CCC4CCN(c5ccc6cc(-c7ccccc7O)nnc6c5)C4C3)nn2)cc1` (stereo partly drawn) [Compound 248, (2S,4R)-4-hydroxy-1-(2-(4-(1-(3-(2-hydroxyphenyl)cinnolin-7-yl)octahydro-6H-pyrrolo[2,3-c]pyridin-6-yl)-1H-1,2,3-triazol-1-yl)-3-methylbutanoyl)-N-((S)-1-(4-(4-methylthiazol-5-yl)phenyl)ethyl)pyrrolidine-2-carboxamide] were, in that order, under 10 nM, “A (“A” indicates maximum degradation ≥75%)”, over 10 nM and over 75%.
For the compound `Cc1ncsc1-c1ccc([C@H](C)NC(=O)[C@@H]2C[C@@H](O)CN2C(=O)[C@@H](c2cc(-c3cnc(N4CC(c5ccc6nnc(-c7ccccc7O)cc6c5Cl)C4)nc3)no2)C(C)C)cc1` [Compound 44], in test [1], the DC50 is over 10 nM and the “BRM HiBit Degradation Maximum (%)” value is recorded as “A (“A” indicates maximum degradation ≥75%)”. For the same compound, the Dmax in test [2] was under 50%.
Regarding `Cc1ncsc1-c1ccc([C@H](C)NC(=O)[C@@H]2C[C@@H](O)CN2C(=O)[C@H](C2CCC2)n2cc(N3CC4(CC(c5ccc6cc(-c7ccccc7O)nnc6c5)C4)C3)nn2)cc1` [Compound 193, (2S,4R)-1-((S)-2-cyclobutyl-2-(4-(6-(3-(2-hydroxyphenyl)cinnolin-7-yl)-2-azaspiro[3.3]heptan-2-yl)-1H-1,2,3-triazol-1-yl)acetyl)-4-hydroxy-N-((S)-1-(4-(4-methylthiazol-5-yl)phenyl)ethyl)pyrrolidine-2-carboxamide], in test [1], the DC50 is under 10 nM and the “BRM HiBit Degradation Maximum (%)” value is “A (“A” indicates maximum degradation ≥75%)”. For the same compound, in test [2], the DC50 is over 10 nM and the Dmax was over 75%.
Take `CC(C)[C@@H](C(=O)N1C[C@H](O)C[C@H]1C(=O)N[C@@H](C)c1ccc(F)cc1)c1cc(N2CC3(C2)CN(c2cc4nnc(-c5ccccc5O)cc4cc2C(F)F)C3)no1` [Compound 236, (2S,4R)-1-((R)-2-(3-(6-(6-(difluoromethyl)-3-(2-hydroxyphenyl)cinnolin-7-yl)-2,6-diazaspiro[3.3]heptan-2-yl)isoxazol-5-yl)-3-methylbutanoyl)-N-((S)-1-(4-fluorophenyl)ethyl)-4-hydroxypyrrolidine-2-carboxamide]: in test [1], the DC50 is over 10 nM and the “BRM HiBit Degradation Maximum (%)” value is on record as “A (“A” indicates maximum degradation ≥75%)”. Moreover, the Dmax in test [2] is under 50%.
The like results for `Cc1ncsc1-c1ccc([C@H](C)NC(=O)[C@@H]2C[C@@H](O)CN2C(=O)[C@@H](c2cc(-c3cnc(N4CCN(c5ccc6cc(-c7ccccc7O)nnc6c5)CC4)nc3)no2)C(C)C)cc1` [Compound 40] were, in that order, under 10 nM, “A (“A” indicates maximum degradation ≥75%)” and under 50%.
As to `Cc1ncsc1-c1ccc([C@H](C)NC(=O)[C@@H]2C[C@@H](O)CN2C(=O)[C@@H](c2cc(N3CCC4(CC3)CC(c3ccc5nnc(-c6ccccc6O)cc5c3)C4)no2)C(C)C)cc1` [Compound 71, (2S,4R)-4-hydroxy-1-[(2R)-2-(3-{2-[3-(2-hydroxyphenyl)cinnolin-6-yl]-7-azaspiro[3.5]nonan-7-yl}-1,2-oxazol-5-yl)-3-methylbutanoyl]-N-[(1S)-1-[4-(4-methyl-1,3-thiazol-5-yl)phenyl]ethyl]pyrrolidine-2-carboxamide], in test [1], the DC50 is under 10 nM and the “BRM HiBit Degradation Maximum (%)” value is reported as “A (“A” indicates maximum degradation ≥75%)”. In addition, in test [2], the DC50 is under 10 nM and the Dmax is over 75%.
Consider `Cc1ncsc1-c1ccc([C@H](C)NC(=O)[C@@H]2C[C@@H](O)CN2C(=O)C(F)(c2cc(N3CC4(CN(c5ccc6cc(-c7ccccc7O)nnc6c5)C4)C3)no2)C(C)C)cc1` (stereo in doubt) [Compound 221, (2S,4R)-1-((R)-2-fluoro-2-(3-(6-(3-(2-hydroxyphenyl)cinnolin-7-yl)-2,6-diazaspiro[3.3]heptan-2-yl)isoxazol-5-yl)-3-methylbutanoyl)-4-hydroxy-N-((S)-1-(4-(4-methylthiazol-5-yl)phenyl)ethyl)pyrrolidine-2-carboxamide], for which, in test [1], the DC50 was under 10 nM and the “BRM HiBit Degradation Maximum (%)” value was “A (“A” indicates maximum degradation ≥75%)”. In addition, in test [2], the DC50 was over 10 nM and the Dmax was over 50%.
In the case of `Cc1ncsc1-c1ccc([C@H](C)NC(=O)[C@@H]2C[C@@H](O)CN2C(=O)C(c2cc(N3C[C@@H]4CN(c5ccc6cc(-c7ccccc7O)nnc6c5)C[C@H]4C3)no2)C(C)C)cc1` (stereo partly drawn) [Compound 226, (2S,4R)-4-hydroxy-1-(2-(3-((3aS,6aS)-5-(3-(2-hydroxyphenyl)cinnolin-7-yl)hexahydropyrrolo[3,4-c]pyrrol-2(1H)-yl)isoxazol-5-yl)-3-methylbutanoyl)-N-((S)-1-(4-(4-methylthiazol-5-yl)phenyl)ethyl)pyrrolidine-2-carboxamide], in test [1], the DC50 is over 10 nM and the “BRM HiBit Degradation Maximum (%)” value is “A (“A” indicates maximum degradation ≥75%)”. The Dmax in test [2] was under 50%.
Regarding `Cc1ncsc1-c1ccc([C@H](C)NC(=O)[C@@H]2C[C@@H](O)CN2C(=O)[C@@H](c2cc(N3CCC4(CCN(c5ccc6nnc(-c7ccccc7O)cc6c5)C4)C3)no2)C(C)C)cc1` (stereo partly drawn) [Compound 98, (2S,4R)-4-hydroxy-1-((2R)-2-(3-(7-(3-(2-hydroxyphenyl)cinnolin-6-yl)-2,7-diazaspiro[4.4]nonan-2-yl)isoxazol-5-yl)-3-methylbutanoyl)-N-((S)-1-(4-(4-methylthiazol-5-yl)phenyl)ethyl)pyrrolidine-2-carboxamide], in test [1], the DC50 was under 10 nM and the “BRM HiBit Degradation Maximum (%)” value is given as “A (“A” indicates maximum degradation ≥75%)”. Also, in test [2], the DC50 is over 10 nM and the Dmax is over 75%.
The like results for `Cc1ncsc1-c1ccc([C@H](C)NC(=O)[C@@H]2C[C@@H](O)CN2C(=O)[C@@H](c2cc(N3CCN4CCN(c5ccc6cc(-c7ccccc7O)nnc6c5)CC4C3)no2)C(C)C)cc1` (stereo partly drawn) [Compound 155, (2S,4R)-4-hydroxy-1-((2R)-2-(3-(8-(3-(2-hydroxyphenyl)cinnolin-7-yl)octahydro-2H-pyrazino[1,2-a]pyrazin-2-yl)isoxazol-5-yl)-3-methylbutanoyl)-N-((S)-1-(4-(4-methylthiazol-5-yl)phenyl)ethyl)pyrrolidine-2-carboxamide] were, in that order, under 10 nM, “A (“A” indicates maximum degradation ≥75%)”, under 10 nM and over 75%.
